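A five-concentration, 48-hour dose response in 96-well plates underlies each endpoint, interpolated linearly between surrounding concentrations. The concentration for full growth arrest is given as TGI.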 Where a SMILES comes first, the peptide text is derived from it. Bridges are numbered along the chain shown (N, C = ends).
What was measured:
Assay in all cases: NCI anticancer screen, dose series, 48 h
SR leukemia = system: SR leukemia
HOP-92 NSCLC = system: HOP-92 NSCLC
SK-MEL-5 melanoma = system: SK-MEL-5 melanoma
COLO 205 colon = system: COLO 205 colon
BT-549 breast = system: BT-549 breast
KM12 colon = system: KM12 colon
SNB-75 CNS = system: SNB-75 CNS
A549 NSCLC = system: A549 NSCLC
SK-MEL-2 melanoma = system: SK-MEL-2 melanoma
RXF 393 renal = system: RXF 393 renal

Structure (SMILES) | TGI (SR leukemia) [µM] | TGI (HOP-92 NSCLC) [µM] | TGI (SK-MEL-5 melanoma) [µM] | TGI (COLO 205 colon) [µM] | TGI (BT-549 breast) [µM] | TGI (KM12 colon) [µM] | TGI (SNB-75 CNS) [µM] | TGI (A549 NSCLC) [µM] | TGI (SK-MEL-2 melanoma) [µM] | TGI (RXF 393 renal) [µM]
COc1ccc(-c2nc(-c3cnccn3)n(C/C=C/c3ccccc3)n2)cc1 | > 100 | 37 | > 100 | > 100 | > 100 | > 100 | 51.7 | > 100 | – | –
O=C(NC1=C(Cl)C(=O)c2ccccc2C1=O)C(=O)c1c(O)c2ccccc2oc1=O | 80.6 | 32.3 | 1.6 | 17.9 | 14.6 | 31.3 | 25 | 6.07 | 10.3 | 21.9
Oc1ccc(Nc2nc(Cl)c3[nH]cnc3n2)cc1 | > 100 | 38.2 | > 100 | > 100 | > 100 | > 100 | > 100 | > 100 | 87.3 | > 100
COc1ccc(Cn2c(=O)c(OS(=O)(=O)C(F)(F)F)c(C)c3cc4ccccc4cc32)cc1 | > 100 | – | > 100 | > 100 | > 100 | > 100 | > 100 | > 100 | > 100 | > 100
COC(=O)c1ccc(C)cc1C1CN=NC12Cc1cccc(C)c1C2=O (stereo not given) | > 100 | > 100 | 47.6 | > 100 | 91.4 | 72.5 | > 100 | > 100 | 63.8 | > 100
COC(=O)C1CCC(=O)NCCCCC(NC(=O)C(N)CC(=O)O)C(=O)N1 (stereo not drawn) (H-Asp-Lys-Glu-OMe; lactam 2-3; configuration not given here) | > 100 | – | > 100 | > 100 | > 100 | > 100 | > 100 | > 100 | > 100 | > 100
O=[N+]([O-])/C(Cl)=C(\NCCO)C(Cl)=C(Cl)Cl | 49.2 | > 100 | > 100 | 79.3 | > 100 | > 100 | > 100 | > 100 | > 100 | > 96.3
Cc1cc(C)c(S(=O)(=O)N(CCCCCN)OCCCN)c(C)c1 | 43.9 | 31 | 35.5 | 37.9 | 32.4 | 34.8 | 30.9 | 36 | 35.1 | 24.8
O=C1CC(c2cccc([N+](=O)[O-])c2)C2(C(=O)NC(=S)NC2=O)C(c2cccc([N+](=O)[O-])c2)C1 (stereo not given) | > 100 | > 100 | > 100 | > 100 | 81.4 | > 100 | > 100 | > 100 | > 100 | –
CCOP(=O)(OCC)C(c1ccccc1)N(C(=O)NC(F)(F)F)c1ccc(C)cc1 (stereo not given) | > 100 | > 100 | > 100 | > 100 | > 100 | > 100 | > 100 | > 100 | > 100 | > 100
CC(=O)N1CCOC12N=NC(C)(C)O2 (stereo not given) | > 100 | > 100 | > 100 | > 100 | > 100 | > 100 | > 100 | > 100 | > 100 | –
CC(C)=CCNc1ncnc2c1ncn2CCC(=O)O | > 100 | > 100 | > 100 | > 100 | > 100 | > 100 | > 100 | > 100 | – | > 100
C/C(=N\Nc1nc2cc(F)ccc2s1)c1ccccn1 | > 100 | 11.5 | 5.49 | – | 5.84 | > 23.4 | 4.68 | – | 7.33 | 6.65
CC(C)(C)OC(=O)NCC(c1c[nH]c2ccccc12)c1c[nH]c2ccccc12 | 32.4 | 27.5 | 26.7 | 29.1 | 35.1 | 28.6 | 28.1 | 29.2 | 32.9 | 17.7
COc1cc(/C=C2\N=C(c3ccccc3)N(c3cc4cc(Sc5ccccc5)ccc4[nH]3)C2=O)ccc1O | 20.4 | > 50 | > 50 | > 50 | > 50 | > 50 | > 50 | > 50 | – | 27.4
C=CCN1C(=O)C[C@H](Cc2ccccc2)NC(=O)C[C@H](Cc2ccccc2)N(CC=C)C(=O)C[C@H](Cc2ccccc2)NC(=O)C[C@@H]1Cc1ccccc1 | > 100 | 80.4 | > 100 | 5.87 | > 100 | > 100 | 50.1 | > 100 | > 100 | > 100
Cc1c2oc(=O)c(C#N)cc2c2ccccn12 | > 100 | > 100 | > 100 | > 100 | > 100 | > 100 | > 100 | > 100 | > 100 | > 100
